Assay results published in paper PMC7321149 (Molecules, 2020).
Read-outs that look alike come from different tables or passages of the source.

Assays:
[1] = test system: L. braziliensis; test: Leishmania high content assay, intracellular amastigotes in PMA-differentiated THP-1 macrophages; assay type: cell-based, Leishmania braziliensis (MHOM/BR/1975/M2903); settings: for EC50: Leishmania braziliensis
Experimental: (§1) THP-1 cells were plated onto 384-well assay plates (7000 cells/well, 25 μL) in RPMI complete media containing 50 ng/mL phorbol 12-myristate 13-acetate (PMA) and incubated at 37 °C/5% CO2 for 48 h. Cells were then infected with stationary-phase promastigotes at a multiplicity of infection (MOI) of 50 by adding 25 μL RPMI (without PMA reagent), containing 1.4 × 10^7 parasites/mL. After 24 h of incubation at 37 °C (34 °C for cutaneous species), negative control-vehicle (0.5% DMSO), the positive control (10 μM amphotericin B), and compounds were added to the plate at a volume of 10 μL/well, bringing the total volume to 60 μL/well. For the primary screenings, compounds from the LOPAC library were tested at a concentration of 50 µM. […] Assay plates were incubated at 37 °C or 34 °C/5% CO2. After 96 h of compound exposure, assay plates were fixed with paraformaldehyde (PFA) by adding 30 μL of 12% PFA in PBS, pH 7.4, followed by incubation for 15 min at room temperature. Plates were then washed three times with 50 μL of PBS, pH 7.4, and stained with 10 μL/well of 5 μM Draq5 in PBS, pH 7.4, for at least two hours before imaging.
(§2) Plates were imaged in Operetta High Content Imaging System (Perkin Elmer), version 3.1, at a 20× magnification and filters optimized for far-red fluorescence (fluorescence filter: […]). A total of four images were acquired per well, which corresponded to 600–800 cells analyzed per condition. Quantitative readouts of the infection (total THP-1 cell number, total number of infected THP-1 cells, and number of parasites (spots) per infected cell) were determined by custom analysis building blocks in Columbus image analysis software (Perkin Elmer). Briefly, host nuclei and cells were segmented based on DNA staining, followed by the detection of individual parasites also based on DNA staining. Infected cells were determined as cells with one or more spots in the cytoplasmatic area. Details of the analysis workflow are described in the (Supplementary Information (Figure S4 and Table S1).
(§3) HCS data were analyzed as previously described^29. Briefly, the ratio of infected cells to the total number of cells was determined as the infection ratio (IR). The raw data for IR values was normalized to the negative (DMSO-treated infected cells) and positive (non-infected cells) controls to determine the normalized antiparasitic activity, expressed as a percentage in comparison to control wells. The cellular ratio was determined as the proportion between the host cell number in compound-treated wells and the mean cell number in infected control wells. Plates were submitted to quality control analysis using the Z’-factor^53 and only plates with Z’-factor > 0.5 were considered for further analysis. Groups of different samples were analyzed using the ANOVA test followed by Tukey’s multiple comparison test. Studies of correlation were performed using Pearson or Spearman tests. […] Dose–response data were processed with the Graphpad Prism software, version 6, using the sigmoidal dose–response (variable slope) nonlinear curve fitting function.

[2] = test system: L. donovani; test: as above; assay type: cell-based, Leishmania donovani (MHOM/IN/1980/DD8)
Experimental: as §1, §2, §3

[3] = test system: L. amazonensis, L. braziliensis, and L. donovani; test: Leishmania multi-species high content assay, result stated across the species panel; assay type: cell-based; settings: for pan-leishmanial activity (efficacy): against all three species; for normalized activity against two species: two of the three species; for Emax: read-out: maximum efficacy
Experimental: as §1, §2, §3

[4] = test system: L. amazonensis; test: Leishmania high content assay, intracellular amastigotes in PMA-differentiated THP-1 macrophages; assay type: cell-based, Leishmania amazonensis (MHOM/BR/1977/LTB0016); settings: for EC50: Leishmania amazonensis
Experimental: as §1, §2, §3

[5] = test system: Leishmania; design: method as in PMID 27215734; settings: cited from earlier work
[6] = test system: visceral leishmaniasis; design: method as in earlier work; settings: phase II clinical trial; cited from earlier work
[7] = test system: L. donovani; design: method as in PMID 21739037; settings: in vitro; cited from earlier work
[8] = test system: amastigote forms of L. aethiopica; design: method as in PMID 11801222; settings: cited from earlier work
[9] = THP-1, read-out: pEC50 M L. d (converted)
[10] = THP-1, confirmatory dose-response, mean of two independent experiments, pEC50 = -log EC50 (M), read-out: pEC50 M L. b (converted)
[11] = THP-1, confirmatory dose-response, mean of two independent experiments, pEC50 = -log EC50 (M), read-out: pEC50 M L. a (converted)
[12] = THP-1, confirmatory dose-response, mean of two independent experiments, pEC50 = -log EC50 (M), read-out: pEC50 M L. d (converted)
[13] = confirmatory dose-response, mean of two independent experiments, pEC50 = -log EC50 (M)
[14] = THP-1, library screening plates, mean ± standard deviation from eight assay plates, read-out: EC50 Amphotericin B
[15] = reference compound concentration-effect curves (Figure 2B), 96 h exposure, infected THP-1, read-out: EC50
[16] = dose-response of reference drugs, span over the three species

NC(=O)c1cc(N2CC2)c([N+](=O)[O-])cc1[N+](=O)[O-] [CB 1954]
EC50 ([1]; THP-1): 1.6e-06 M
EC50 ([1]; THP-1, read-out: pEC50 M L. b (converted)): 2.19e-06 M
EC50 ([2]; THP-1): 3.7e-06 M
EC50 [2, 9]: 3.72e-06 M
pan-leishmanial activity (efficacy) [3]: greater than 70%
EC50 ([4]; THP-1): 3.1e-05 M
EC50 ([4]; THP-1, read-out: pEC50 M L. a (converted)): 3.09e-05 M

COc1ccccc1OCCNCC(O)COc1cccc2[nH]c3ccccc3c12 (centres unmarked) [Carvedilol]
EC50 ([1]; THP-1, confirmatory dose-response screen, values in text, read-out: EC50): 1.62e-05 M
EC50 [1, 10]: 1.62e-05 M
EC50 [4, 11]: 3.55e-05 M

CCc1cccc(N(C)C(N)=Nc2cccc3ccccc23)c1 [Cerestat]
EC50 [4, 11]: 2.88e-05 M

CN(C)CCCN1c2ccccc2CCc2ccc(Cl)cc21 [Clomipramine]
pan-leishmanial activity (efficacy) [3]: greater than 70%

CN1CCN(C2Cc3ccccc3Sc3ccc(Cl)cc32)CC1 (centres unmarked) [Clorotepine]
EC50 [1, 10]: 2.88e-05 M
EC50 [2, 12]: 4.37e-05 M
EC50 [4, 11]: 4.57e-05 M

C[C@]1(COc2ccc(N3CCC(Oc4ccc(OC(F)(F)F)cc4)CC3)cc2)Cn2cc([N+](=O)[O-])nc2O1 [Delamanid]
efficacy against Leishmania [5]: effective

CNCCCN1c2ccccc2CCc2ccccc21 [Desipramine]
EC50 [1, 10]: 3.24e-05 M
EC50 [4, 11]: 2.75e-05 M

CN(C)CC/C=C1/c2ccccc2Sc2cc(Cl)ccc21.Cl [EU-0100170]
normalized activity against two species [3]: > 90%

CCN(CC)C(C)CN1c2ccccc2Sc2ccccc21 (centres unmarked) [Ethopropazine]
EC50 [1, 10]: 3.72e-05 M
EC50 [2, 12]: 3.16e-05 M
EC50 [4, 11]: 4.57e-05 M

OCCN1CCN(CCC=C2c3ccccc3Sc3ccc(C(F)(F)F)cc32)CC1 [Flupenthixol]
EC50 [2, 12]: 3.47e-05 M

N=C(CC(=O)O)C(=O)O [Iminoaspartate]
pEC50 M L. b [1, 13]: 4.52
pEC50 M L. a [4, 13]: 4.42

CNC1CC(c2ccc(Cl)c(Cl)c2)c2ccccc21 (centres unmarked) [Indatraline]
EC50 ([2]; THP-1): 1.81e-05 M
EC50 [2, 9]: 1.82e-05 M

Cl.O=S(=O)(c1cccc2c(Cl)cccc12)N1CCCNCC1 [ML-9]
pan-leishmanial activity (efficacy) [3]: greater than 70%

CNCCCC12CCC(c3ccccc31)c1ccccc12 [Maprotiline]
pan-leishmanial activity (efficacy) [3]: greater than 70%

CN1C[C@H](CNC(=O)OCc2ccccc2)C[C@@H]2c3cccc4c3c(cn4C)C[C@H]21 [Metergoline]
EC50 [2, 12]: 3.24e-05 M

CNCCC=C1c2ccccc2CCc2ccccc21 [Nortriptyline]
EC50 [1, 10]: 3.63e-05 M
EC50 [4, 11]: 2.95e-05 M

Fc1ccc([C@@H]2CCNC[C@H]2COc2ccc3c(c2)OCO3)cc1 [Paroxetine]
EC50 [2, 12]: 3.16e-05 M

CCCCCCCCCCCCCCCCCCOP(=O)([O-])OC1CC[N+](C)(C)CC1 [Perifosine]
EC50 [2, 12]: 2.75e-05 M

OCCN1CCN(CCCN2c3ccccc3Sc3ccc(Cl)cc32)CC1 [Perphenazine]
EC50 [2, 12]: 2.75e-05 M

CN(C)CCCN1c2ccccc2Sc2ccccc21 [Promazine]
EC50 [1, 10]: 4.57e-05 M

CC(CN1c2ccccc2Sc2ccccc21)N(C)C (centres unmarked) [Promethazine]
EC50 [1, 10]: 3.98e-05 M
EC50 [4, 11]: 3.98e-05 M

CCC(=O)c1ccc2c(c1)N(CCCN(C)C)c1ccccc1S2 [Propionylpromazine]
EC50 [1, 10]: 3.09e-05 M
EC50 [4, 11]: 3.47e-05 M

CNCCCC1c2ccccc2C=Cc2ccccc21 [Protriptyline]
EC50 [1, 10]: 3.72e-05 M
EC50 [2, 12]: 2.95e-05 M
pan-leishmanial activity (efficacy) [3]: greater than 70%
EC50 [4, 11]: 3.89e-05 M

c1cc(CN2CCCCC2)cc(OCCCNc2nc3ccccc3s2)c1 [SKF 95282]
EC50 [1, 10]: 2.63e-05 M
EC50 [2, 12]: 4.9e-05 M
EC50 [4, 11]: 4.27e-05 M

CN1CCN(CCCN2c3ccccc3Sc3ccc(C(F)(F)F)cc32)CC1 [Trifluoperazine]
EC50 [2, 12]: 3.8e-05 M

CN(C)CCCN1c2ccccc2Sc2ccc(C(F)(F)F)cc21 [Triflupromazine]
EC50 [2, 12]: 2.82e-05 M

CC(CN(C)C)CN1c2ccccc2CCc2ccccc21 (centres unmarked) [Trimipramine]
EC50 [1, 10]: 2.82e-05 M
EC50 [2, 12]: 4.07e-05 M
EC50 [4, 11]: 3.98e-05 M

CC[C@]1(O)C[C@@H]2CN(CCc3c([nH]c4ccccc34)[C@@](C(=O)OC)(c3cc4c(cc3OC)N(C)[C@H]3[C@@](O)(C(=O)OC)[C@H](OC(C)=O)[C@]5(CC)C=CCN6CC[C@]43[C@@H]65)C2)C1 [Vinblastine]
EC50 [1, 10]: 3.47e-05 M
EC50 [4, 11]: 2.82e-05 M

C[C@@H]1[C@H](O)[C@@H](C)/C=C/C=C/C=C/C=C/C=C/C=C/C=C/[C@H](O[C@@H]2O[C@H](C)[C@@H](O)[C@H](N)[C@@H]2O)C[C@@H]2O[C@](O)(C[C@@H](O)C[C@@H](O)[C@H](O)CC[C@@H](O)C[C@@H](O)CC(=O)O[C@H]1C)C[C@H](O)[C@H]2C(=O)O [amphotericin B]
EC50 [1, 14]: 9.3e-07 ± 4.5e-07 M
EC50 [1, 15]: 1.3e-06 M
EC50 [2, 14]: 8.2e-07 ± 7e-08 M
EC50 [2, 15]: 7e-07 M
EC50 [3, 16]: 0.7 to 2 µM
Emax [3, 16]: ~100%
EC50 [4, 14]: 2.1e-06 ± 1.6e-07 M
EC50 [4, 15]: 1.7e-06 M

CSc1ccc(OCc2ncc([N+](=O)[O-])n2C)cc1 [fexinidazole]
efficacy in patients [6]: failed to demonstrate efficacy

CCCCCCCCCCCCCCCCOP(=O)([O-])OCC[N+](C)(C)C [miltefosine]
potency against L. donovani relative to L. amazonensis, L. braziliensis, L. guyanensis, and L. chagasi [7]: approximately 20 times
EC50 [1, 15]: 1.6e-06 M
EC50 [2, 15]: 6e-07 M
potency variation between species ([3]; EC50 compared between the three species): up to 4 fold
Emax [3, 16]: 78 to 100%
EC50 ([4]; THP-1, variation across ten independent experiments, read-out: EC50): 9.7e-07 to 1.4e-05 M
EC50 [4, 15]: 2.3e-06 M
sensitivity to miltefosine, L. aethiopica relative to L. major [8]: 14 fold

Cl.O[Si](CCCN1CCCCC1)(c1ccc(F)cc1)C1CCCCC1 (centres unmarked) [pFHHSiD]
normalized activity against two species [3]: > 90%

Bromocryptine
pEC50 M L. b [1, 13]: 4.41
pEC50 M L. a [4, 13]: 4.43
